Measurements taken from ChEMBL document CHEMBL1201862, “PubChem BioAssay data set” (2004).
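Test compounds were applied to cells in 96-well plates for 48 hours at 5 doses. GI50 is the concentration that inhibits growth by half.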 Calls of active or inactive are those of the source. Rule as the data show it: active = GI50 up to about 1.1 µM and inactive = higher.

Key:
Assay in all cases: NCI-60 cell line screen, 48 h
T47D = system: T47D
786-0 = system: 786-0
SF-295 = system: SF-295
CAKI-1 = system: CAKI-1
UACC-257 = system: UACC-257
BT-549 = system: BT-549
TK-10 = system: TK-10
ACHN = system: ACHN
HCT-116 = system: HCT-116
HCC 2998 = system: HCC 2998
K562 = system: K562
NCI-H226 = system: NCI-H226
LOX IMVI = system: LOX IMVI
IGROV-1 = system: IGROV-1
SW-620 = system: SW-620
SNB-19 = system: SNB-19
UO-31 = system: UO-31
NCI-H23 = system: NCI-H23
SK-MEL-2 = system: SK-MEL-2
U-251 = system: U-251

Measured: GI50

CCOC(=O)/C=C(\C(=O)OCC)n1ccc(N)nc1=O
inactive: T47D > 100 µM | 786-0 > 100 µM | SF-295 > 100 µM | CAKI-1 37.7 µM | UACC-257 > 100 µM | BT-549 38.6 µM | TK-10 > 100 µM | ACHN > 100 µM | HCT-116 > 100 µM | HCC 2998 > 100 µM | K562 67.9 µM | NCI-H226 > 100 µM | LOX IMVI 88.7 µM | IGROV-1 > 100 µM | SW-620 56.4 µM | SNB-19 > 100 µM | UO-31 > 100 µM | NCI-H23 > 100 µM | SK-MEL-2 > 100 µM | U-251 72.3 µM

C#C[C@]1(O)CC[C@H]2[C@@H]3CCC4=C/C(=N/NC(=O)c5cccc6c(=O)c7ccccc7[nH]c56)CCC4[C@H]3CC[C@@]21C (stereo not given in full)
inactive: T47D 30.8 µM | 786-0 35.6 µM | SF-295 43.4 µM | CAKI-1 > 100 µM | UACC-257 35.5 µM | BT-549 19.2 µM | TK-10 57.5 µM | ACHN 65.6 µM | HCT-116 53 µM | HCC 2998 47.9 µM | K562 73.5 µM | NCI-H226 73.8 µM | LOX IMVI 58.1 µM | IGROV-1 82.2 µM | SW-620 49.8 µM | SNB-19 86.3 µM | UO-31 20.5 µM | NCI-H23 27.1 µM | SK-MEL-2 33 µM | U-251 29.8 µM

N=C(N)N/N=C/c1c(Cl)nc2sccn12
inactive: T47D 26.5 µM | 786-0 17.1 µM | SF-295 21.4 µM | CAKI-1 52.6 µM | UACC-257 23.4 µM | BT-549 26.9 µM | TK-10 52.2 µM | ACHN 16.8 µM | HCT-116 15.3 µM | HCC 2998 16.9 µM | K562 25.6 µM | NCI-H226 25.4 µM | LOX IMVI 18.9 µM | IGROV-1 53.5 µM | SW-620 18 µM | SNB-19 35.8 µM | UO-31 34.7 µM | NCI-H23 46.6 µM | SK-MEL-2 > 10 µM | U-251 29.9 µM
